Measurements as given in PubChem BioAssay AID1963865 (Molecular Pharmacology Branch, DTP, NCI, 2024).

Test system: KRAS PDC multicell spheroid viability
Assay: Anticancer human tumor 825966-067-R-J1-PDC patient-derived colon carcinoma cell line growth inhibition [KRAS2]
Conditions: for viability, T/C: stronger effect = lower value
Outline: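 Combination screen of spheroid viability in tumor-cell co-cultures with endothelial (HUVEC) and mesenchymal stem cell stroma. Each agent was tested in half-log dilutions, topping at clinical Cmax or at 10 microM without a known Cmax.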

[1] = curve of first compound, second compound 0.1 µM
[2] = curve of first compound, second compound 0.316 µM
[3] = curve of first compound, second compound 1 µM
[4] = curve of first compound, second compound 3.16 µM
[5] = curve of first compound, second compound 10 µM
[6] = second compound 0.1 µM, first compound 0.00316 µM
[7] = second compound 0.1 µM, first compound 0.01 µM
[8] = second compound 0.1 µM, first compound 0.0316 µM
[9] = second compound 0.1 µM, first compound 0.1 µM
[10] = second compound 0.1 µM, first compound 0.316 µM
[11] = second compound 0.1 µM, first compound 1 µM
[12] = second compound 0.316 µM, first compound 0.00316 µM
[13] = second compound 0.316 µM, first compound 0.01 µM
[14] = second compound 0.316 µM, first compound 0.0316 µM
[15] = second compound 0.316 µM, first compound 0.1 µM
[16] = second compound 0.316 µM, first compound 0.316 µM
[17] = second compound 0.316 µM, first compound 1 µM
[18] = second compound 1 µM, first compound 0.00316 µM
[19] = second compound 1 µM, first compound 0.01 µM
[20] = second compound 1 µM, first compound 0.0316 µM
[21] = second compound 1 µM, first compound 0.1 µM
[22] = second compound 1 µM, first compound 0.316 µM
[23] = second compound 1 µM, first compound 1 µM
[24] = second compound 3.16 µM, first compound 0.00316 µM
[25] = second compound 3.16 µM, first compound 0.01 µM
[26] = second compound 3.16 µM, first compound 0.0316 µM
[27] = second compound 3.16 µM, first compound 0.1 µM
[28] = second compound 3.16 µM, first compound 0.316 µM
[29] = second compound 3.16 µM, first compound 1 µM
[30] = second compound 10 µM, first compound 0.00316 µM
[31] = second compound 10 µM, first compound 0.01 µM
[32] = second compound 10 µM, first compound 0.0316 µM
[33] = second compound 10 µM, first compound 0.1 µM
[34] = second compound 10 µM, first compound 0.316 µM
[35] = second compound 10 µM, first compound 1 µM
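Note: spheroids exposed to compounds for 7 days.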
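Throughout, for viability, T/C: 100% = DMSO vehicle control viability.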

| SMILES | IC50 [1] | IC50 [2] | IC50 [3] | IC50 [4] | IC50 [5] | viability, T/C [7] | viability, T/C [8] | viability, T/C [9] | viability, T/C [13] | viability, T/C [14] | viability, T/C [15] | viability, T/C [19] | viability, T/C [20] | viability, T/C [21] | viability, T/C [25] | viability, T/C [26] | viability, T/C [27] | viability, T/C [31] | viability, T/C [32] | viability, T/C [33] | other results |
| --- | --- | --- | --- | --- | --- | --- | --- | --- | --- | --- | --- | --- | --- | --- | --- | --- | --- | --- | --- | --- | --- |
| CCN1CCN(Cc2ccc(Nc3ncc(F)c(-c4cc(F)c5nc(C)n(C(C)C)c5c4)n3)nc2)CC1 + COc1cc2nc(C)nc(NC(C)c3cc(N)cc(C(F)(F)F)c3)c2cc1OC1CCOC1 | > 1000 nM | > 1000 nM | > 1000 nM | > 1000 nM | 31.9 nM | 111% | 121% | 170% | 109% | 111% | 132% | 109% | 104% | 152% | 142% | 161% | 158% | 87.8% | 38.3% | 31.5% | viability, T/C [6]: 99.6%; viability, T/C [10]: 129%; viability, T/C [11]: 183%; viability, T/C [12]: 99.3%; viability, T/C [16]: 172%; viability, T/C [17]: 161%; viability, T/C [18]: 103%; viability, T/C [22]: 179%; viability, T/C [23]: 92.7%; viability, T/C [24]: 118%; viability, T/C [28]: 171%; viability, T/C [29]: 50.1%; viability, T/C [30]: 82.9%; viability, T/C [34]: 5.53%; viability, T/C [35]: 1.46% |
| CN(C)C/C=C/C(=O)Nc1cc2c(Nc3ccc(F)c(Cl)c3)ncnc2cc1O[C@H]1CCOC1 + COc1cc2nc(C)nc(NC(C)c3cc(N)cc(C(F)(F)F)c3)c2cc1OC1CCOC1 | > 100 nM | > 100 nM | > 100 nM | > 100 nM | > 100 nM | 101% | 96.1% | 91.8% | 98.9% | 105% | 103% | 97.2% | 99.2% | 83.5% | 115% | 106% | 105% | 106% | 105% | 95.2% | viability, T/C (second compound 0.1 µM, first compound 0.000316 µM): 94%; viability, T/C (second compound 0.1 µM, first compound 0.001 µM): 96.7%; viability, T/C [6]: 82.9%; viability, T/C (second compound 0.316 µM, first compound 0.000316 µM): 103%; viability, T/C (second compound 0.316 µM, first compound 0.001 µM): 107%; viability, T/C [12]: 95.9%; viability, T/C (second compound 1 µM, first compound 0.000316 µM): 92.2%; viability, T/C (second compound 1 µM, first compound 0.001 µM): 96%; viability, T/C [18]: 105%; viability, T/C (second compound 3.16 µM, first compound 0.000316 µM): 133%; viability, T/C (second compound 3.16 µM, first compound 0.001 µM): 119%; viability, T/C [24]: 107%; viability, T/C (second compound 10 µM, first compound 0.000316 µM): 108%; viability, T/C (second compound 10 µM, first compound 0.001 µM): 103%; viability, T/C [30]: 116% |
| CCNC(=O)CC1N=C(c2ccc(Cl)cc2)c2cc(OC)ccc2-n2c(C)nnc21 (configuration not stated) |  |  |  |  |  |  |  |  |  |  |  |  |  |  |  |  |  |  |  |  | viability, T/C (compound 10 µM): 83.8% [middle of 5 runs]; IC50 (curve of compound): > 10000 nM |
| CC1COCCN1c1cc(-c2ccnn2C)c2ccnc(-c3ccn[nH]3)c2n1 (configuration not stated) + CNCc1ccccc1-c1csc(C(C)Nc2nc(C)nc3cc(OC)c(OC)cc23)c1 | 244 nM | 278 nM | 122 nM | < 10 nM | < 10 nM | 111% | 129% | 89.2% | 132% | 131% | 75.8% | 104% | 91.5% | 56.8% | 29.4% | 8.68% | 1.56% | 0.18% | 0.15% | 0.12% | viability, T/C [10]: 34.4%; viability, T/C [11]: 44.4%; viability, T/C (second compound 0.1 µM, first compound 3.16 µM): 37.3%; viability, T/C [16]: 54%; viability, T/C [17]: 49.5%; viability, T/C (second compound 0.316 µM, first compound 3.16 µM): 30.3%; viability, T/C [22]: 18.3%; viability, T/C [23]: 14.2%; viability, T/C (second compound 1 µM, first compound 3.16 µM): 2.54%; viability, T/C [28]: 2.53%; viability, T/C [29]: 0.56%; viability, T/C (second compound 3.16 µM, first compound 3.16 µM): 0.39%; viability, T/C [34]: 0.52%; viability, T/C [35]: 0.12%; viability, T/C (second compound 10 µM, first compound 3.16 µM): 0.19% |
